The results in this text go back to US9145415B2, “Nitrogen-containing heterocyclic compound or salt thereof” (FUJIFILM Corporation, priority 2012, dated 2015).

The test system of one experiment is Molm-13 cells. The experiment is described as follows: Leukemia cell proliferation inhibition test (ATPlite), Molm-13. Type of experiment: cell-based. The settings on record: Homo sapiens, MOLM-13, 72 h, Molm-13, 72 hours culture, ATPlite; GI50 per method; read-out: MOLM13 cell proliferation inhibition effect. Summed up:
(§1)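 Luminescent ATP read-out (firefly luciferase) used as a total cell count after 72 h compound exposure at 37° C, 5% CO2. Cells: 10,000/well in RPMI + 10% FBS. GI50 = 50% inhibition relative to 0.1% DMSO, from a sigmoid dose-response fit; duplicates.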
Background: In ATP-based viability assays light output follows the ATP content of the culture.

Another experiment has as its system MV4-11 cells. Kind of experiment: Leukemia cell proliferation inhibition test (ATPlite), MV4-11. Type of experiment: cell-based. The following applies: Homo sapiens, MV4-11, 72 h, MV4-11, 72 hours culture, ATPlite; GI50 per method; read-out: MV4-11 cell proliferation inhibition effect. Summed up:
as §1

The target of experiment [1] is T1, human FLT3 protein (FLT3 (WT)) (Homo sapiens, UniProt P36888).
T1 construct: human FLT3 protein (intracellular region, 564 to 993 aa); GST; purchased Carna Biosciences; host or cells: baculovirus expression system
T1 sequence (P36888 564-993): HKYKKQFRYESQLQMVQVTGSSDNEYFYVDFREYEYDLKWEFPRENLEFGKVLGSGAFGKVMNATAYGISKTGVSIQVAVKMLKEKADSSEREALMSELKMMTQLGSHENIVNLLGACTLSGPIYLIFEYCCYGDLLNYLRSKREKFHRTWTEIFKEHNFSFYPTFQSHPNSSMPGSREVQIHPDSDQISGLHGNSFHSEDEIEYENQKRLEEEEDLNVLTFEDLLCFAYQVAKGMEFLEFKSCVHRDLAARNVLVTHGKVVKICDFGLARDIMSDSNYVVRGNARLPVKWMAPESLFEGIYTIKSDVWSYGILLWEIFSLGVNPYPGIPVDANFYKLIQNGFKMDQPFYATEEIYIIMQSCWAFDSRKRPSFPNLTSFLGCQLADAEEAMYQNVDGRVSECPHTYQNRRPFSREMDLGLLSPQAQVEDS
Kind of experiment: FLT3 inhibition test (FLT3 enzyme inhibition, time-resolved fluorescence of substrate peptide phosphorylation). The following applies: GST-fused human FLT3 (564 to 993 aa), ATP 50 μM; read-out: FLT3 (WT) enzyme inhibition activity. Type of experiment: biochemical. Summed up: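 Substrate peptide phosphorylation detected by time-resolved fluorescence after a 30 min kinase reaction at 25° C with 50 μM ATP (final). Beforehand, compound and FLT3 (WT, 1.2 μg) stood 15 min at 25° C in HEPES buffer pH 7.5 containing MgCl2, NaCl, BSA and DTT.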

As to `CCCNc1nc(Nc2cccc(F)c2)ncc1C#CCCC(=O)NCCN(C)C(=O)/C=C/CN(C)C` [Compound 8-21], the results for the IC50 (with Molm-13 cells; in the experiment with MV4-11 cells; in experiment [1]) were 100 to 1000 nM, 100 to 1000 nM and 10 to 100 nM, respectively.

For the compound `CCCNc1nc(Nc2ccc(C#N)cc2)ncc1C#CCCC(=O)NCCN(C)C(=O)/C=C/CN(C)C` [Compound 8-22], the figures for the IC50 (in the experiment on Molm-13 cells; in the experiment on MV4-11 cells; in experiment [1]) were 10 to 100 nM, 10 to 100 nM and below 10 nM, respectively.

As to `CNc1nc(Nc2cccc(F)c2)ncc1C#Cc1cccc(NC(=O)CN(C)C(=O)/C=C/CN(C)C)c1` [Compound 8-23], the IC50 was 10 to 100 nM in the experiment with Molm-13 cells, 10 to 100 nM in the experiment with MV4-11 cells and below 10 nM in experiment [1].

`C[C@@H](C(=O)NCCCC#Cc1cnc(Nc2ccc(C#N)cc2)nc1N1CCCC1)N(C)C(=O)/C=C/CN(C)C` [Compound 9-1, (S,E)-N-(1-((5-(2-((4-cyanophenyl)amino)-4-(pyrrolidin-1-yl)pyrimidin-5-yl)-4-pentyn-1-yl)amino)-1-oxopropan-2-yl)-4-(dimethylamino)-N-methyl-2-butenamide]: the IC50 (with Molm-13 cells; in the experiment on MV4-11 cells; in experiment [1]) was below 10 nM each time.

On to `C[C@@H](C(=O)NCCCC#Cc1cnc(Nc2cccc(C#N)c2)nc1N1CCOCC1)N(C)C(=O)/C=C/CN(C)C` [Compound 9-2], for which the IC50 is 10 to 100 nM in the experiment on Molm-13 cells, 10 to 100 nM in the experiment on MV4-11 cells and below 10 nM in experiment [1].

Regarding `CCCN(C)c1nc(Nc2cccc(C#N)c2)ncc1C#CCCCNC(=O)[C@H](C)N(C)C(=O)/C=C/CN(C)C` [Compound 9-3], the figures for the IC50 (in the experiment with Molm-13 cells; with MV4-11 cells; in experiment [1]) were 10 to 100 nM, below 10 nM and below 10 nM, respectively.

For the compound `C=CC(=O)N(C)[C@@H](C)C(=O)NCCCC#Cc1cnc(Nc2cccc(C#N)c2)nc1N1CCOCC1` [Compound 9-4], the IC50 is 10 to 100 nM in the experiment on Molm-13 cells, 10 to 100 nM in the experiment on MV4-11 cells and below 10 nM in experiment [1].

For `CCCN(C)c1nc(Nc2cccc(F)c2)ncc1C#CCCCNC(=O)[C@H](C)N(C)C(=O)/C=C/CN(C)C` [Compound 9-5], the IC50 in the experiment on Molm-13 cells was 10 to 100 nM; in the experiment with MV4-11 cells it was 10 to 100 nM; in experiment [1], below 10 nM.

For the compound `CCCN(C)c1nc(Nc2ccc(C(N)=O)cc2)ncc1C#CCCCNC(=O)[C@H](C)N(C)C(=O)/C=C/CN(C)C` [Compound 9-6], the IC50 (in the experiment on Molm-13 cells; in the experiment on MV4-11 cells; in experiment [1]) was below 10 nM throughout.

For the compound `C[C@@H](C(=O)NCCCC#Cc1cnc(Nc2ccc(C(N)=O)cc2)nc1N1CCCC1)N(C)C(=O)/C=C/CN(C)C` [Compound 9-7], the IC50 (in the experiment with Molm-13 cells; in the experiment on MV4-11 cells; in experiment [1]) was below 10 nM in each case.

On to `CCCN(C)c1nc(Nc2ccc(C(=O)NC3CC3)cc2)ncc1C#CCCCNC(=O)[C@H](C)N(C)C(=O)/C=C/CN(C)C` [Compound 9-8], for which the results for the IC50 (in the experiment with Molm-13 cells; with MV4-11 cells; in experiment [1]) were 10 to 100 nM, below 10 nM and below 10 nM, respectively.

On to `CCCN(C)c1nc(Nc2ccc(C(=O)NC)cc2)ncc1C#CCCCNC(=O)[C@H](C)N(C)C(=O)/C=C/CN(C)C` [Compound 9-9], for which the IC50 (with Molm-13 cells; in the experiment on MV4-11 cells; in experiment [1]) was below 10 nM each time.

As for `CCCN(C)c1nc(Nc2ccnc(F)c2)ncc1C#CCCCNC(=O)[C@H](C)N(C)C(=O)/C=C/CN(C)C` [Compound 9-10], the IC50 (in the experiment with Molm-13 cells; with MV4-11 cells; in experiment [1]) was below 10 nM each time.

Take `C[C@@H](C(=O)NCCCC#Cc1cnc(Nc2ccnc(F)c2)nc1N1CCOCC1)N(C)C(=O)/C=C/CN(C)C` [Compound 9-11]: the IC50 (in the experiment with Molm-13 cells; in the experiment on MV4-11 cells; in experiment [1]) was below 10 nM each time.

For `C[C@@H](C(=O)NCCCC#Cc1cnc(Nc2ccnc(F)c2)nc1N1CCCC1)N(C)C(=O)/C=C/CN(C)C` [Compound 9-12, (S,E)-4-(Dimethylamino)-N-(1-((5-(2-((2-fluoropyridin-4-yl)amino)-4-(pyrrolidin-1-yl)pyrimidin-5-yl)-4-pentyn-1-yl)amino)-1-oxopropan-2-yl)-N-methyl-2-butenamide], the IC50 (in the experiment with Molm-13 cells; with MV4-11 cells; in experiment [1]) was below 10 nM in each case.

As to `CCCNc1nc(Nc2ccnc(F)c2)ncc1C#CCCCNC(=O)[C@H](C)N(C)C(=O)/C=C/CN(C)C` [Compound 9-13, (S,E)-4-(Dimethylamino)-N-(1-((5-(2-((2-fluoropyridin-4-yl)amino)-4-(propylamino)pyrimidin-5-yl)-4-pentyn-1-yl)amino)-1-oxopropan-2-yl)-N-methyl-2-butenamide], the IC50 (with Molm-13 cells; in the experiment on MV4-11 cells; in experiment [1]) was below 10 nM each time.

As for `CCCN(c1nc(Nc2ccnc(F)c2)ncc1C#CCCCNC(=O)[C@H](C)N(C)C(=O)/C=C/CN(C)C)C1CC1` [Compound 9-14], the IC50 (in the experiment on Molm-13 cells; in the experiment with MV4-11 cells; in experiment [1]) was below 10 nM in each case.

`C[C@@H](C(=O)NCCCC#Cc1cnc(Nc2ccnc(F)c2)nc1NC1CC1)N(C)C(=O)/C=C/CN(C)C` [Compound 9-15, (S,E)-N-(1-((5-(4-(Cyclopropylamino)-2-((2-fluoropyridin-4-yl)amino)pyrimidin-5-yl)-4-pentyn-1-yl)amino)-1-oxopropan-2-yl)-4-(dimethylamino)-N-methyl-2-butenamide]: the IC50 (in the experiment on Molm-13 cells; in the experiment on MV4-11 cells; in experiment [1]) was below 10 nM throughout.

On to `COCCCNc1nc(Nc2ccnc(F)c2)ncc1C#CCCCNC(=O)[C@H](C)N(C)C(=O)/C=C/CN(C)C` [Compound 9-16], for which the IC50 (in the experiment on Molm-13 cells; with MV4-11 cells; in experiment [1]) was below 10 nM in each case.

On to `C[C@@H](C(=O)NCCCC#Cc1cnc(Nc2ccnc(F)c2)nc1NCCCF)N(C)C(=O)/C=C/CN(C)C` [Compound 9-17], for which the IC50 (in the experiment with Molm-13 cells; in the experiment with MV4-11 cells; in experiment [1]) was below 10 nM throughout.

As for `CCCNc1nc(Nc2ccnc(F)c2)ncc1C#CCCCNC(=O)[C@H](CC)N(C)C(=O)/C=C/CN(C)C` [Compound 9-18], the IC50 (in the experiment on Molm-13 cells; with MV4-11 cells; in experiment [1]) was below 10 nM each time.

Take `CCCNc1nc(Nc2ccnc(F)c2)ncc1C#CC(C)(C)CCNC(=O)[C@H](C)N(C)C(=O)/C=C/CN(C)C` [Compound 9-19]: the IC50 (with Molm-13 cells; with MV4-11 cells; in experiment [1]) was below 10 nM each time.

In the case of `C[C@@H](C(=O)NCCC(C)(C)C#Cc1cnc(Nc2ccnc(F)c2)nc1NC1CC1)N(C)C(=O)/C=C/CN(C)C` [Compound 9-20], the IC50 (with Molm-13 cells; with MV4-11 cells; in experiment [1]) was below 10 nM in each case.

Turning to `CCCNc1nc(Nc2cncc(F)c2)ncc1C#CC(C)(C)CCNC(=O)[C@H](C)N(C)C(=O)/C=C/CN(C)C` [Compound 9-21], the IC50 in the experiment with Molm-13 cells is 10 to 100 nM; in the experiment on MV4-11 cells, below 10 nM; in experiment [1] it was below 10 nM.

For the compound `C[C@@H](C(=O)NCCCC#Cc1cnc(Nc2cncc(F)c2)nc1NC1CC1)N(C)C(=O)/C=C/CN(C)C` [Compound 9-22], the IC50 in the experiment on Molm-13 cells is 10 to 100 nM; with MV4-11 cells it was below 10 nM; in experiment [1], below 10 nM.

`C[C@@H](C(=O)NCCCC#Cc1cnc(Nc2cccc(F)n2)nc1NC1CC1)N(C)C(=O)/C=C/CN(C)C` [Compound 9-23]: the values for the IC50 (with Molm-13 cells; with MV4-11 cells; in experiment [1]) were 100 to 1000 nM, 10 to 100 nM and 10 to 100 nM, respectively.

`CCCNc1nc(Nc2ccc(C#N)c(F)c2)ncc1C#CCCCNC(=O)[C@H](C)N(C)C(=O)/C=C/CN(C)C` [Compound 9-25]: the IC50 (in the experiment on Molm-13 cells; in the experiment with MV4-11 cells; in experiment [1]) was below 10 nM each time.

Take `CCCNc1nc(Nc2ccc(C#N)cc2)ncc1C#CC(C)(C)CCNC(=O)[C@H](C)N(C)C(=O)/C=C/CN(C)C` [Compound 9-26]: the IC50 (with Molm-13 cells; in the experiment with MV4-11 cells; in experiment [1]) was below 10 nM in each case.

As to `C[C@@H](C(=O)NCCC(C)(C)C#Cc1cnc(Nc2ccc(C#N)cc2)nc1NC1CC1)N(C)C(=O)/C=C/CN(C)C` [Compound 9-27], the IC50 (in the experiment with Molm-13 cells; in the experiment on MV4-11 cells; in experiment [1]) was below 10 nM each time.

As to `CCCNc1nc(Nc2cccc(OC(F)F)c2)ncc1C#CCCCNC(=O)[C@H](C)N(C)C(=O)/C=C/CN(C)C` [Compound 9-28], the IC50 (in the experiment on Molm-13 cells; with MV4-11 cells; in experiment [1]) was below 10 nM throughout.

For `CCCNc1nc(Nc2ccc(F)c(OC)c2)ncc1C#CCCCNC(=O)[C@H](C)N(C)C(=O)/C=C/CN(C)C` [Compound 9-29], the IC50 (in the experiment on Molm-13 cells; in the experiment with MV4-11 cells; in experiment [1]) was below 10 nM in each case.
